Measured values from patent US5686255A, “Compositions and methods for diagnosing schizophrenia” (priority 1995, dated 1997).
“Also recorded” adds a separate entry of the source.

Legend:
[1] = tested on: Chinese hamster ovary cells which express the cloned dopamine D4 receptor; assay: Spontaneous G protein binding of [35S]GTPγS in membranes of CHO cells expressing the D4 receptor, after cycloleucine pretreatment; type: cell-based; conditions: cells treated with 0.1 mM and 1 mM cycloleucine prior to membrane preparation; versus untreated control membranes; FIG. 5A
Description: The effect of cycloleucine, a known MAT inhibitor, on the binding of [^35 S]GTPγS was tested by treating Chinese hamster ovary cells expressing the D4 receptor with 0.1 mM and 1 mM cycloleucine prior to membrane preparation (FIG. 5A).
Chinese hamster ovary (CHO) cells stably expressing a cloned dopamine D4 receptor were grown as monolayers at 37° (95% O2 /5%CO2) in alpha minimum essential medium supplemented with 2.5% fetal calf serum, 2.5% horse serum, 100 units/ml penicillin, 100 μg/ml streptomycin, 0.25 μg/ml fungizone and 400 μg/ml G418.
Cells were washed twice with phosphate-buffered saline (137 mM NaCl, 2.6 mM KCl, 10 mM Na2 HPO4, 1.8 mM KH2 PO4), harvested with a rubber policeman, and pelleted at 4° at 200× g. The pellet was resuspended in 5 ml/dish of lysis buffer (5 mM Tris-HCL, pH 7.5, 5 mM EDTA, 5 mM EGTA, 0.1 mM phenylmethylsulfonyl fluoride) at 4° and was homogenized with a Dounce homogenizer. […]
[^35 S]GTPγS binding was measured with a modification of the assay used by Hilf and Jakobs (Eur J Pharmacol 172: 155-163 (1989)). […] The filters were washed four times (with 4 ml of 50 mM Tris.cndot.HCl, pH 7.5, containing 5 mM MgCl2 and 100 mM NaCl) and then counted in scintillation cocktail. Nonspecific binding was determined in the presence of 10 μM GTPγS and subtracted from total bound radioactivity.

[2] = tested on: Chinese hamster ovary cells without the D4 receptor; assay: Spontaneous [35S]GTPγS binding in CHO cells without the D4 receptor; type: cell-based; conditions: FIG. 5B
Source text: FIGS. 5A and 5B illustrate graphic representations of the effect of cycloleucine on spontaneous G protein binding of [^35 S]GTPγS.

Compound: NC1(C(=O)O)CCCC1 [cycloleucine]
- binding of [35S]GTPγS to the membranes (spontaneous G protein activation) [1]: inhibit spontaneous G protein binding of [^35 S]GTPγS; also recorded: progressively reduced by 0.1 mM and 1 mM cycloleucine pretreatment to levels significantly lower than the untreated control membranes
- effect on spontaneous [35S]GTPγS binding [2]: inability of cycloleucine to affect spontaneous [^35 S]GTPγS binding
